Tests used:
[1] = target: T1, h5-HT4b (Homo sapiens, UniProt Q13639); assay: 5HT4 antagonism: [3H]GR113808 binding to membranes of h5-HT4b-HEK 293 clone 9 cells; conditions: displacement of [3H]GR113808 0.1 nM; h5-HT4b-HEK 293 membranes; 30 min at 25° C.; read-out: pIC50 (5HT4 antagonistic data) (converted)
T1 construct: expressed in transfected cells; host or cells: HEK 293 (clone 9), membrane preparation
Procedure: h5-HT4b-HEK 293 clone 9 cells were cultured in 150 mm Petri dishes and washed twice with cold PBS. The cells were then scraped from the plates and suspended in 50 mM Tris-HCl buffer, pH 7.4 and harvested by centrifugation at 23,500 rpm for 10 minutes. The pellet was resuspended in 5 mM Tris-HCl, pH 7.4 and homogenized with an Ultra Turrax homogenizer. The membranes were collected by centrifugation at 30,000 rpm for 20 min, resuspended in 50 mM Tris-HCl pH 7.4 and stored at −80° C. For the experiment, assay mixtures (0.5 ml) contained 50 μl of the tritiated ligand (5-HT4 antagonist [^3H]GR113808 0.1 nM) and 0.4 ml membrane preparation (15 μg protein/ml). 50 μl of 10% DMSO was added for total binding. 50 μl of 1 μM of (+)-trans-(1-butyl-3-hydroxy-4-piperidinyl)methyl 8-amino-7-chloro-2,3-dihydro-1,4-benzodioxin-5-carboxylate (a proprietary 5HT4 agonist of Janssen Pharmaceutica) was added for determination of non-specific binding.
The [^3H]GR113808 assay buffer was 50 mM HEPES-NaOH, pH 7.4. The mixtures were incubated for 30 min at 25° C. The incubation was terminated by filtration over a Unifilter 96 GF/B presoaked in 0.1% polyethylenimine, followed by six washing steps with 50 mM HEPES-NaOH, pH 7.4.

[2] = Metabolic stability: incubation with liver microsomes and NADPH-generating system, LC-MS analysis; type: in vitro ADME; conditions: compound 5 μM; microsomes 1 mg/ml; NADPH-generating system; 60 minutes at 37 degrees Celsius
Procedure: Sub-cellular tissue preparations were made according to Gorrod et al. (Xenobiotica 5: 453-462, 1975) by centrifugal separation after mechanical homogenization of tissue. Liver tissue was rinsed in ice-cold 0.1 M Tris-HCl (pH 7.4) buffer to wash excess blood. Tissue was then blotted dry, weighed and chopped coarsely using surgical scissors. The tissue pieces were homogenized in 3 volumes of ice-cold 0.1 M phosphate buffer (pH 7.4).
Tissue homogenates were centrifuged at 9000×g for 20 minutes at 4° C. The resulting supernatant was stored at −80° C. and is designated ‘S9’.
The S9 fraction can be further centrifuged at 100.000×g for 60 minutes (4° C.). The resulting supernatant was carefully aspirated, aliquoted and designated ‘cytosol’. The pellet was re-suspended in 0.1 M phosphate buffer (pH 7.4) in a final volume of 1 ml per 0.5 g original tissue weight and designated ‘microsomes’.
All sub-cellular fractions were aliquoted, immediately frozen in liquid nitrogen and stored at −80° C. until use.
For the samples to be tested, the incubation mixture contained PBS (0.1M), compound (5 μM), microsomes (1 mg/ml) and a NADPH-generating system (0.8 mM glucose-6-phosphate, 0.8 mM magnesium chloride and 0.8 Units of glucose-6-phosphate dehydrogenase). Control samples contained the same material but the microsomes were replaced by heat inactivated (10 minutes at 95 degrees Celsius) microsomes. Recovery of the compounds in the control samples was always 100%.
The mixtures were preincubated for 5 minutes at 37 degrees Celsius. The reaction was started at time point zero (t=0) by addition of 0.8 mM NADP and the samples were incubated for 60 minutes (t=60). The reaction was terminated by the addition of 2 volumes of DMSO. Then the samples were centrifuged for 10 minutes at 900×g and the supernatants were stored at room temperature for no longer as 24 hours before analysis. All incubations were performed in duplo. Analysis of the supernatants was performed with LC-MS analysis. Elution of the samples was performed on a Xterra MS C18 (50×4.6 mm, 5 μm, Waters, US). An Alliance 2790 (Supplier: Waters, US) HPLC system was used. Elution was with buffer A (25 mM ammoniumacetate (pH 5.2) in H2O/acetonitrile (95/5)), solvent B being acetonitrile and solvent C methanol at a flow rate of 2.4 ml/min. The gradient employed was increasing the organic phase concentration from 0% over 50% B and 50% C in 5 min up to 100% B in 1 minute in a linear fashion and organic phase concentration was kept stationary for an additional 1.5 minutes. Total injection volume of the samples was 25 μl.
A Quatro triple quadrupole mass spectrometer fitted with and ESP source was used as detector. The source and the desolvation temperature were set at 120 and 350° C. respectively and nitrogen was used as nebuliser and drying gas. Data were acquired in positive scan mode (single ion reaction). Cone voltage was set at 10 V and the dwell time was 1 second.
Metabolic stability was expressed as % metabolism of the compound after 60 minutes (equation given as Example) of incubation in the presence of active microsomes E(act))

T1 sequence (Q13639 whole entry): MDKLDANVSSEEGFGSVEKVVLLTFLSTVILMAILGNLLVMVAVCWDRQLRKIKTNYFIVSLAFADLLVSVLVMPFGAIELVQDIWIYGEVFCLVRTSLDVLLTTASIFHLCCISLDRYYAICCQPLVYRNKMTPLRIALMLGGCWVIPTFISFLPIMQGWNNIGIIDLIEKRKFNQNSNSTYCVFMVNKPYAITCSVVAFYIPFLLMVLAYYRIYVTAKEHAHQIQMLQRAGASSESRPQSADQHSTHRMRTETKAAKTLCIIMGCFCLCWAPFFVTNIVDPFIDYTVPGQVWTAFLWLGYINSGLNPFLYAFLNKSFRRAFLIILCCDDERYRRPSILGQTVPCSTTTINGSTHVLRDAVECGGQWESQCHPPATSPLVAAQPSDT

SMILES | IC50 [1] [nM] | % metabolised compound after 60 minutes [2] [%]
O=C1CN(CCCN2CC[C@@H](CNC(=O)c3cc(Cl)cc4c3OCCCO4)[C@H](O)C2)C(=O)N1 (relative stereo) [Compound 21] | 6.46 | 30.5
CO[C@@H]1CN(CCCCn2ccc(O)n2)CC[C@H]1CNC(=O)c1cc(Cl)c(Br)c2c1OCCCO2 (relative stereo) [Compound 30] | 1 | 
COc1ccc(C(=O)NC[C@@H]2CCN(CCCCn3ccc(O)n3)C[C@H]2O)c2c1OCCO2 [Compound 1] | 2.4 | 5
Cc1cc2c(c(C(=O)NC[C@@H]3CCN(CCCc4cc(O)no4)C[C@H]3O)c1)OCCO2 [Compound 2] | 8.71 | 0
N#Cc1cc2c(c(C(=O)NC[C@@H]3CCN(CCCc4cc(O)no4)C[C@H]3O)c1)OCCO2 [Compound 3] | 148 | 
COc1ccc(C(=O)NCC2CCN(CCCCn3ccc(O)n3)CC2OC)c2c1OCCO2 (centres unmarked) [Compound 4] | 11.5 | 11
COc1ccc(C(=O)NC[C@@H]2CCN(CCCc3cc(O)no3)C[C@H]2O)c2c1OCCO2 [Compound 5] | 123 | 4
O=C(NC[C@@H]1CCN(CCCc2cc(O)no2)C[C@H]1O)c1cc(F)cc2c1OCCO2 [Compound 6] | 2750 | 8
O=C(NCC1CCN(CCCc2nnn[nH]2)CC1O)c1cc(Cl)cc2c1OCCCO2 (centres unmarked) [Compound 7] | 31.6 | 5
O=C(NC[C@@H]1CCN(CCCCc2nnn[nH]2)C[C@H]1O)c1cc(Cl)cc2c1OCCCO2 [Compound 8] | 7.24 | 2.5
Cc1ccc(C(=O)NC[C@@H]2CCN(CCCc3nnn[nH]3)C[C@H]2O)c2c1OCCCO2 [Compound 9] | 7.94 | 3
Cc1ccc(C(=O)NC[C@@H]2CCN(CCCCc3nnn[nH]3)C[C@H]2O)c2c1OCCCO2 [Compound 10] | 5.62 | 2
O=C(NCC1CCN(CCCCn2ccc(O)n2)CC1O)c1cc(Cl)cc2c1OCCCO2 (centres unmarked) [Compound 11] | 1.26 | 39
Cc1cc2c(c(C(=O)NC[C@@H]3CCN(CCCCc4nnn[nH]4)C[C@H]3O)c1)OCCCO2 [Compound 13] | 13.2 | 2
Cc1cc2c(c(C(=O)NC[C@@H]3CCN(CCCCn4ccc(O)n4)C[C@H]3O)c1)OCCCO2 [Compound 15] | 1.91 | 26
O=C(NC[C@@H]1CCN(CCCn2nn[nH]c2=O)C[C@H]1O)c1cc(Cl)cc2c1OCCCO2 [Compound 16] | 18.2 | 0.5
O=C(NC[C@@H]1CCN(CCc2nnn[nH]2)C[C@H]1O)c1cc(Cl)cc2c1OCCCO2 [Compound 20] | 64.6 | 0
Cc1ccc(C(=O)NC[C@@H]2CCN(CCc3nnn[nH]3)C[C@H]2O)c2c1OCCCO2 [Compound 22] | 9.55 | 4.5

SMILES | IC50 [1] [nM] | % metabolised compound after 60 minutes [2] [%]
Cc1cc2c(c(C(=O)NC[C@@H]3CCN(CCCc4cc(O)no4)C[C@H]3O)c1)OCCCO2 [Compound 23] | 16.6 | 6
Cc1cc2c(c(C(=O)NCC3CCN(CCCN4CC(=O)NC4=O)CC3O)c1)OCCCO2 (centres unmarked) [Compound 24] | 7.08 | 16
COC1CN(CCCCn2ccc(O)n2)CCC1CNC(=O)c1cc(C#N)cc2c1OCCCO2 (centres unmarked) [Compound 25] | 33.9 | 55
Cc1ccc(C(=O)NC[C@@H]2CCN(CCCc3cc(O)no3)C[C@H]2O)c2c1OCCCO2 [Compound 26] | 16.6 | 3
O=C(NC[C@@H]1CCN(CCCc2cc(O)no2)C[C@H]1O)c1cc(Cl)cc2c1OCCCO2 [Compound 27] | 10.2 | 12
O=C(NCC1CCN(CCCCn2ccc(O)n2)CC1O)c1cc(Cl)c(Br)c2c1OCCCO2 (centres unmarked) [Compound 28] | 1.17 | 53
O=C(NCC1CCN(CCCCn2ccc(O)n2)CC1O)c1cc(Cl)c(Cl)c2c1OCCCO2 (centres unmarked) [Compound 29] | 0.871 | 50
Cc1cc2c(c(C(=O)NC[C@@H]3CCN(CCCN4C(=O)CNC4=O)C[C@H]3O)c1)OCCCO2 [Compound 31] | 1.48 | 12
COC1CN(CCCCn2ccc(O)n2)CCC1CNC(=O)c1cc(Cl)c(Cl)c2c1OCCCO2 (centres unmarked) [Compound 32] | 0.759 | 
N#Cc1cc2c(c(C(=O)NC[C@@H]3CCN(CCCCn4ccc(O)n4)C[C@H]3O)c1)OCCCO2 [Compound 34] | 3.89 | 11
COc1ccc(C(=O)NC[C@@H]2CCN(CCCc3cc(O)no3)C[C@H]2O)c2c1OCCCO2 [Compound 35] | 83.2 | 
O=C(NC[C@@H]1CCN(CCCc2cc(O)no2)C[C@H]1O)c1cc(F)cc2c1OCCCO2 [Compound 36] | 14.1 | 10
O=C(NC[C@@H]1CCN(CCCc2cc(O)no2)C[C@H]1O)c1cccc2c1OCCCO2 [Compound 37] | 17.8 | 1
Cc1cc2c(c(C(=O)NC[C@@H]3CCN(CCCCN4CCOCC4)C[C@H]3O)c1)OCCCO2 [Compound 38] | 1.05 | 18
COC1CN(CCCc2cc(O)no2)CCC1CNC(=O)c1cc(Cl)cc2c1OCCCO2 (centres unmarked) [Compound 39] | 22.9 | 17
COc1ccc(C(=O)NC[C@@H]2CCN(CCCCN3CCOCC3)C[C@H]2O)c2c1OCCCO2 [Compound 42] | 4.07 | 0
COc1ccc(C(=O)NCC2CCN(CCCc3cc(O)no3)CC2OC)c2c1OCCCO2 (centres unmarked) [Compound 44] | 372 | 3
COC1CN(CCCc2cc(O)no2)CCC1CNC(=O)c1cc(C)cc2c1OCCCO2 (centres unmarked) [Compound 45] | 132 | 6
